Molecular target: T1, recombinant human LTA4 hydrolase (rhLTA4H) (Homo sapiens, UniProt P09960)
T1 construct: made in house; host or cells: Spodoptera frugiperda (Sf-9) cells, baculovirus (pFastBac1)
T1 sequence (P09960 1-611): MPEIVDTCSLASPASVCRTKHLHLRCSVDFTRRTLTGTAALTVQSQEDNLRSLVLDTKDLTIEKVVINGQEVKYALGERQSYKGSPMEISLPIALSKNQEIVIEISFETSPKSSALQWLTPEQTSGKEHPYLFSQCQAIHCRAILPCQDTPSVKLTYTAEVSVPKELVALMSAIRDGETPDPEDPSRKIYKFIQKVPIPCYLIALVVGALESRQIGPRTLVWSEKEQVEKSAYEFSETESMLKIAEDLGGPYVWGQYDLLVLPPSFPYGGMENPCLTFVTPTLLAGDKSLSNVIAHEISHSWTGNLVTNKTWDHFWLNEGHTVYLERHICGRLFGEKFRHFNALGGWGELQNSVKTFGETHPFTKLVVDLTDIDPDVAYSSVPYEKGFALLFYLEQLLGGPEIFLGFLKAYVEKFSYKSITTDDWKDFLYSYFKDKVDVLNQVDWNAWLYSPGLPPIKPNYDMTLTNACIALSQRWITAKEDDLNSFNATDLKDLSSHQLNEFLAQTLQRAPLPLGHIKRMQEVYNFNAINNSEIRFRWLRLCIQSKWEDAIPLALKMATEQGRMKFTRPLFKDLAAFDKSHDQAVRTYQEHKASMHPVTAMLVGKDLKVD
Experiment: Recombinant Human LTA4 Hydrolase Assay for LTA4 Hydrolase Inhibitor Activity
Format: biochemical
Details: average of results obtained; LTB4 quantified by enzyme-linked immunoassay
Summary of the method: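 LTB4 formation, quantified by EIA after 10 min at rt, was the read-out once 9 ng LTA4 (free acid) was added to recombinant human enzyme (36 ng, Sf-9 expressed) that had sat 10 min with compound. Buffer: 0.1 M potassium phosphate pH 7.4 with fatty-acid-free BSA; IC50 by 4-parameter fit.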

| Ki | Structure (SMILES) |
| --- | --- |
| 543 nM | Cc1ccc2nc(Oc3ccc(CCN4C5CCC4CN(S(C)(=O)=O)C5)cc3)sc2c1 [Example 214, meso-2-{4-[2-(3-Methanesulfonyl-3,8-diaza-bicyclo[3.2.1]oct-8-yl)-ethyl]-phenoxy}-6-methyl-benzothiazole] |
| 190 nM | CS(=O)(=O)N1C[C@@H]2C[C@H]1CN2Cc1ccc(Cc2nc3ccccc3s2)cc1 [Example 45, (S,S)-2-[4-(5-Methanesulfonyl-2,5-diaza-bicyclo[2.2.1]hept-2-ylmethyl)-benzyl]-benzothiazole] |
| 173 nM | CS(=O)(=O)N1C2CCC1CN(Cc1ccc(Oc3nc4ccccc4s3)cc1)C2 [Example 57, meso-2-[4-(8-Methanesulfonyl-3,8-diaza-bicyclo[3.2.1]oct-3-ylmethyl)-phenoxy]-benzothiazole] |
| 38 nM | CC(=O)N[C@@H]1C[C@H]2CC[C@@H](C1)N2Cc1ccc(Oc2nc3cc(Cl)ccc3s2)cc1 [Example 276, meso-exo-N-{8-[4-(5-Chloro-benzothiazol-2-yloxy)-benzyl]-8-aza-bicyclo[3.2.1]oct-3-yl}-acetamide] |
| 490 nM | NC(=O)N1[C@@H]2CC[C@H]1C[C@@H](NCCOc1ccc(Oc3nc4cc(Cl)ccc4s3)cc1)C2 [Example 257, meso-endo-3-{2-[4-(5-Chloro-benzothiazol-2-yloxy)-henoxy]-ethylamino}-8-aza-bicyclo[3.2.1]octane-8-carboxylic acid amide] |
| 26 nM | O=C(CO)N1C[C@@H]2C[C@H]1CN2CCOc1ccc(Oc2nc3ccccc3s2)cc1 [Example 23, (S,S)-1-(5-{2-[4-(Benzothiazol-2-yloxy)-phenoxy]-ethyl}-2,5-diaza-bicyclo[2.2.1]hept-2-yl)-2-hydroxy-ethanone] |
| 50 nM | CC(=O)N[C@H]1C[C@H]2CC[C@@H](C1)N2Cc1ccc(Cc2nc3ccccc3o2)cc1 [Example 6, meso-endo-N-[8-(4-Benzooxazol-2-ylmethyl-benzyl)-8-aza-bicyclo[3.2.1]oct-3-yl]-acetamide] |
| 92 nM | CC(=O)N1C2CCC1CN(Cc1ccc(Oc3nc4ccccc4s3)cc1)C2 [Example 51, meso-1-{3-[4-(Benzothiazol-2-yloxy)-benzyl]-3,8-diaza-bicyclo[3.2.1]oct-8-yl}-ethanone] |
| 33 nM | CS(=O)(=O)N[C@@H]1C[C@H]2CC[C@@H](C1)N2CCOc1ccc(Oc2nc3cccc(F)c3s2)cc1 [Example 251, meso-exo-N-(8-{2-[4-(7-Fluoro-benzothiazol-2-yloxy)-phenoxy]-ethyl}-8-aza-bicyclo[3.2.1]oct-3-yl)-methanesulfonamide] |
| 95 nM | CN(Cc1ccc(Oc2nc3ccccc3s2)cc1)[C@H]1C[C@H]2CC[C@@H](C1)N2C(N)=O [Example 75, meso-endo-3-{[4-(Benzothiazol-2-yloxy)-benzyl]-methyl-amino}-8-aza-bicyclo[3.2.1]octane-8-carboxylic acid amide] |
| 85 nM | CC(=O)N1[C@@H]2CC[C@H]1C[C@@H](NCCc1ccc(Oc3nc4cc(F)ccc4s3)cc1)C2 [Example 197, meso-endo-1-(3-{2-[4-(5-Fluoro-benzothiazol-2-yloxy)-phenyl]-ethylamino}-8-aza-bicyclo[3.2.1]oct-8-yl)-ethanone] |
| 4 nM | CC(=O)N(C)[C@H]1C[C@H]2CC[C@@H](C1)N2Cc1ccc(Oc2nc3ccccc3s2)cc1 [Example 70, meso-endo-N-{8-[4-(Benzothiazol-2-yloxy)-benzyl]-8-aza-bicyclo[3.2.1]oct-3-yl}-N-methyl-acetamide] |
| 13 nM | O=C(CO)N1CCC2CN(Cc3ccc(Oc4nc5ccccc5s4)cc3)CC2C1 (stereo not shown) [Example 116, 1-{2-[4-(Benzothiazol-2-yloxy)-benzyl]-octahydro-pyrrolo[3,4-c]pyridin-5-yl}-2-hydroxy-ethanone] |
| 612 nM | Cc1ccc2nc(Oc3ccc(CCN4C[C@H]5C[C@@H]4CN5S(C)(=O)=O)cc3)sc2c1 [Example 193, (R,R)-2-{4-[2-(5-Methanesulfonyl-2,5-diaza-bicyclo[2.2.1]hept-2-yl)-ethyl]-phenoxy}-6-methyl-benzothiazole] |
| 20 nM | O=C(CO)N1CC2CCN(Cc3ccc(Oc4nc5ccccc5s4)cc3)CC2C1 (stereo not shown) [Example 117, 1-{5-[4-(Benzothiazol-2-yloxy)-benzyl]-octahydro-pyrrolo[3,4-c]pyridin-2-yl}-2-hydroxy-ethanone] |
| 8 nM | NC(=O)N[C@@H]1C[C@H]2CC[C@@H](C1)N2CCOc1ccc(Oc2nc3cccc(F)c3s2)cc1 [Example 282, meso-exo-(8-{2-[4-(7-Fluoro-benzothiazol-2-yloxy)-phenoxy]-ethyl}-8-aza-bicyclo[3.2.1]oct-3-yl)-urea] |
| 21 nM | CC(=O)N1CC2CCN(Cc3ccc(Oc4nc5ccccc5s4)cc3)CC2C1 (stereo not shown) [Example 90, 1-{5-[4-(Benzothiazol-2-yloxy)-benzyl]-octahydro-pyrrolo[3,4-c]pyridin-2-yl}-ethanone] |
| 965 nM | CS(=O)(=O)N1[C@@H]2CC[C@H]1C[C@H](NCc1ccc(Oc3nc4cc(Cl)ccc4s3)cc1)C2 [Example 185, meso-exo-[4-(5-Chloro-benzothiazol-2-yloxy)-benzyl]-(8-methanesulfonyl-8-aza-bicyclo[3.2.1]oct-3-yl)-amine] |
| 414 nM | CC(=O)N1[C@@H]2CC[C@H]1C[C@H](NCc1ccc(Oc3nc4cc(F)ccc4s3)cc1)C2 [Example 165, meso-exo-1-{3-[4-(5-Fluoro-benzothiazol-2-yloxy)-benzylamino]-8-aza-bicyclo[3.2.1]oct-8-yl}-ethanone] |
| 167 nM | COC(=O)c1ccc(CN2CC3CN(Cc4ccc(Oc5nc6ccccc6s5)cc4)CC3C2)cc1 (stereo not shown) [Example 153, 4-{5-[4-(Benzothiazol-2-yloxy)-benzyl]-hexahydro-pyrrolo[3,4-c]pyrrol-2-ylmethyl)-benzoic acid methyl ester] |
| 802 nM | NC(=O)N1[C@@H]2CC[C@H]1C[C@@H](NCCOc1ccc(Oc3nc4c(Cl)cccc4s3)cc1)C2 [Example 221, meso-endo-3-{2-[4-(4-Chloro-benzothiazol-2-yloxy)-phenoxy]-ethylamino}-8-aza-bicyclo[3.2.1]octane-8-carboxylic acid amide] |
| 12 nM | NC(=O)N[C@H]1C[C@H]2CC[C@@H](C1)N2CCOc1ccc(Oc2nc3c(F)cccc3s2)cc1 [Example 262, meso-endo-(8-{2-[4-(4-Fluoro-benzothiazole-2-yloxy)-phenoxy]-ethyl}-8-aza-bicyclo[3.2.1]oct-3-yl)-urea] |
| 52 nM | CC(C)(O)C(=O)N1C[C@H]2C[C@@H]1CN2Cc1ccc(Oc2nc3ccccc3s2)cc1 [Example 24, (R,R)-1-{5-[4-(Benzothiazol-2-yloxy)-benzyl]-2,5-diaza-bicyclo[2.2.1]hept-2-yl}-2-hydroxy-2-methyl-propan-1-one] |
| 394 nM | CS(=O)(=O)N1[C@@H]2CC[C@H]1C[C@H](NCc1ccc(Oc3nc4ccc(F)cc4s3)cc1)C2 [Example 205, meso-exo-[4-(6-Fluoro-benzothiazol-2-yloxy)-benzyl]-(8-methanesulfonyl-8-aza-bicyclo[3.2.1]oct-3-yl)-amine] |
| 97 nM | Cn1ccc(C(=O)N2CC3CN(Cc4ccc(Oc5nc6ccccc6s5)cc4)CC3C2)c1 (stereo not shown) [Example 108, {5-[4-(Benzothiazol-2-yloxy)-benzyl]-hexahydro-pyrrolo[3,4-c]pyrrol-2-yl}-(1-methyl-1H-pyrrol-3-yl)-methanone] |
